Structures can show the parent of a compound that is named as a salt.
Key:
human MC3 receptor = human MC3 receptor (Homo sapiens (Human), UniProt P41968); experiment: Human MC receptor activation, cAMP production in cells expressing human MC3 receptor; format: cell-based; conditions: FreeStyle 293-F cells transiently expressing human MC3 receptor, α-MSH maximum = 100%
Description: (1) Construction of Human MC Receptor-Expressing Vector
A human MC4 receptor gene (GenBank Accession No.: NM_005912.2), a human MC1 receptor gene (GenBank Accession No.: NM_002386.3), or a human MC3 receptor gene (GenBank Accession No.: NM_019888.3) was introduced into an expression vector pcDNA™ 3.1/V5-His TOPO (registered trademark) (Thermo Fisher Scientific Inc.).
(2) Construction of Cells Transiently Expressing Human MC Receptor
An expression vector for a human MC4, MC1, or MC3 receptor was introduced into FreeStyle™ 293-F cell (Thermo Fisher Scientific Inc., product number: R790-07). For the introduction, electroporation was employed. That is, 1×10^7 FreeStyle™ 293-F cell were suspended in 80 μL of an electroporation buffer (Thermo Fisher Scientific Inc., product number: B201-100), and 20 μg of the expression vector was added thereto. The resultant was put into a cuvette (OC-100 Processing Assembly, MaxCyte, Inc.) and electroporated with MaxCyte SIX (registered trademark) (MaxCyte, Inc.). The cells were cultured over one day, suspended in a Cell Banker (registered trademark) 1 (JUJI FIELD Inc.), product number: BLC-1), and stored frozen until their use.
(3) Measurement of Amount of cAMP Produced
Measurement was carried out by using a LANCE (registered trademark) Ultra cAMP Kit (PerkinElmer, Inc.) in accordance with the attached instructions. That is, after dissolution in DMSO, the test compound (a final concentration of 1 pM to 30 μM) diluted with an assay buffer (Hank's balanced salt solution, 5 mM 4-(2-hydroxyethyl)-1-piperazineethanesulfonic acid (HEPES), 0.5 mM 3-isobutyl-1-methylxanthine (IBMX), 0.1% bovine serum albumin, pH 7.4), or α-MSH (Bachem Inc., a final concentration of 1 pM to 30 μM) was added to OptiPlate-384 (PerkinElmer, Inc.). Furthermore, a suspension of cells transiently expressing the human MC4, MC1, or MC3 receptor prepared by using the assay buffer was added thereto at 1,000 cells/well, followed by being left to stand at room temperature for about 1 hour. Thereafter, an Eu-cAMP tracer solution and an ULight™-anti-cAMP solution were added thereto, followed by being left to stand at room temperature for about 1 hour. The amount of cAMP was calculated using EnVision (registered trademark) (PerkinElmer Inc.).
For the agonistic activity, an efficacy (EC50 (μM)) was calculated by a non-linear regression method with a Sigmoid-Emax model, by defining the maximum reaction with α-MSH as 100% and the reaction with the vehicle alone as 0%, respectively.

Male Wistar rats = experiment: Action on rat urethral pressure (phenylephrine-induced increase); format: in vivo; conditions: anesthetized rats, intravenous, dose giving 40% inhibition of phenylephrine-induced urethral pressure ΔAUC, read-out: ID40
Protocol: The present Test Example was carried out by partially modifying the technique reported as a testing system for evaluating an urethral resistance-reducing action (European Journal of Pharmacology, 679, 127-131 (2012)). Male Wistar rats (Charles River Laboratories Japan, Inc.) were anesthetized with urethane (1.2 g/kg ip), and placed in a supine position. The lower abdominal portion was midline-incised, and thus, the bladder was exposed. The bladder apex was incised, a microchip pressure transducer catheter (3.5 Fr, Millar) was inserted into the inside of the urethra, and then placed therein. In addition, a cannula for administration of a drug was placed into the femoral vein. After stabilization of the urethral pressure, phenylephrine hydrochloride (Sigma-Aldrich, 30 μg/kg) was administered intravenously to induce an increase in the urethral pressure. At an interval of about 30 minutes, this operation was repeated twice or more to confirm the stability of the reaction of a phenylephrine hydrochloride-induced increase in the urethral pressure. Thereafter, a test compound (dissolved in 20% dimethyl acetamide, 10% Cremophor (registered trademark) and 70% physiological saline) was intravenously administered, and then 5 minutes later, phenylephrine hydrochloride was administered. The procedure of administration of the test compound and administration of phenylephrine hydrochloride was repeated at an interval of about 30 minutes, and 3 to 5 doses of the test compound was evaluated (the test compound was administered at increasing doses). The data of reaction was introduced into a personal computer through PowerLab (registered trademark) (ADInstruments, Inc.), and analyzed with LabChart (registered trademark) (ADInstruments, Inc.). For the evaluation, the value of the area under the urethral pressure (mmHg·s) for one minute before and after administration of phenylephrine hydrochloride was determined to calculate the difference between before and after administration of phenylephrine hydrochloride (ΔAUC value). By taking the ΔAUC value obtained before administering the test compound as 100%, the ratio (reaction rate) of the ΔAUC value of the test compound at each dose was calculated. The rate at which the obtained reaction rate becomes 60% (40% as an inhibition rate) was defined as ID40, and the ID40 values of the test compounds were calculated by non-linear regression.

Male SD rats = experiment: Rat erection-inducing action; format: in vivo; conditions: 10 mg/kg intravenously, erections up to one hour after administration, vs vehicle, P<0.05
Protocol: Male SD rats (Charles River Laboratories Japan, Inc.) were used. A test compound (10 mg/kg) or the vehicle (20% dimethyl acetamide, 10% Cremophor (registered trademark), 70% physiological saline) was administered intravenously through the tail vein. After administration, the rats were transferred to transparent observation cages made of plastic to measure the erection times of up to one hour after administration. The measurements were carried out for five groups (3 to 7 animals per group): vehicle groups, Example compound groups (Ex 87, 88, and 89), and THIQ group, which had been known as an MC4 receptor agonist (J. Med. Chem., 45, 4589-4593 (2002)), as a positive control. For a statistical significance test, Dunnett's multiple comparison test was used for the comparison with vehicle control group, and it was determined whether there was an erection-inducing effect with a statistically significant difference (P<0.05).

Sequence of human MC3 receptor (P41968 whole entry): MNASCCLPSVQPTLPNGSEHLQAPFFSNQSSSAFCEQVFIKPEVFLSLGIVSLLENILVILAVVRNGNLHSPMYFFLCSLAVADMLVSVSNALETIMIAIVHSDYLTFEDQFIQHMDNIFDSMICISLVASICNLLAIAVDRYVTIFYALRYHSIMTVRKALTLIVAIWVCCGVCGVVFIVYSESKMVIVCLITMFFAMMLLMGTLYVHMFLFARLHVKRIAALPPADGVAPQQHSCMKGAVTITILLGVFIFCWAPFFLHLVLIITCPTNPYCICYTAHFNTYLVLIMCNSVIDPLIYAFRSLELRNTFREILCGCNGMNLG

Row | Structure (SMILES) | EC50 (human MC3 receptor) | ED40 (Male Wistar rats) | erection-inducing effect (Male SD rats)
1 | Cc1ccc(C[C@@H](C(=O)O)N2CCN(C(=O)[C@@H]3CN(C4CCOCC4)C[C@H]3c3ccc(Cl)cc3F)[C@@H](C)C2)c(F)c1 [Example 87, (2S)-2-[(3S)-4-{[(3S,4R)-4-(4-chloro-2-fluorophenyl)-1-(tetrahydro-2H-pyran-4-yl)pyrrolidin-3-yl]carbonyl}-3-methylpiperazin-1-yl]-3-(2-fluoro-4-methylphenyl)propanoic acid dihydrochloride] | 0.92 µM | 0.04 mg/kg | did not exhibit an erection-inducing effect
2 | Cc1cc(C)c(C[C@@H](C(=O)O)N2CCN(C(=O)[C@@H]3CN(C4CCOCC4)C[C@H]3c3ccc(Cl)cc3F)[C@@H](C)C2)c(F)c1 [Example 88] | 0.88 µM | 0.04 mg/kg | did not exhibit an erection-inducing effect
3 | Cc1cc(C)c(C[C@@H](C(=O)O)N2CCN(C(=O)[C@@H]3CN(C(C)(C)C)C[C@H]3c3ccc(Cl)cc3F)[C@@H](C)C2)c(C)c1 [Example 89] | 0.78 µM | 0.024 mg/kg | did not exhibit an erection-inducing effect

The next lines start with results.

Row | EC50 (human MC3 receptor) | Structure (SMILES) | ED40 (Male Wistar rats) | erection-inducing effect (Male SD rats)
4 | 0.18 µM | Cc1ccc(C[C@@H](C(=O)O)N2CCN(C(=O)[C@@H]3CN(C(C)(C)C)C[C@H]3c3ccc(Cl)cc3F)[C@@H](C)C2)c(F)c1 [Example 4, (2S)-2-[(3S)-4-{[(3S,4R)-1-tert-butyl-4-(4-chloro-2-fluorophenyl)pyrrolidin-3-yl]carbonyl}-3-methylpiperazin-1-yl]-3-(2-fluoro-4-methylphenyl)propanoic acid dihydrochloride] | 0.0094 mg/kg | –
5 | 4.2 µM | C[C@H]1CN([C@@H](Cc2ccc3c(c2)CCC3)C(=O)O)CCN1C(=O)[C@@H]1CN(C(C)(C)C)C[C@H]1c1ccc(F)cc1F [Example 5, (2S)-2-[(3S)-4-{[(3S,4R)-1-tert-butyl-4-(2,4-difluorophenyl)pyrrolidin-3-yl]carbonyl}-3-methylpiperazin-1-yl]-3-(2,3-dihydro-1H-inden-5-yl)propanoic acid dihydrochloride] | 0.13 mg/kg | –
6 | 0.91 µM | CCC[C@H]1CN([C@@H](Cc2ccc3ccccc3c2)C(=O)O)CCN1C(=O)[C@@H]1CN(C(C)(C)C)C[C@H]1c1ccc(F)cc1F [Example 9] | 0.047 mg/kg | –
7 | 3.7 µM | Cc1ccc(C[C@@H](C(=O)O)N2CCN(C(=O)[C@@H]3CN(C(C)(C)C)C[C@H]3c3ccc(Cl)cc3F)[C@@H](C)C2)cc1 [Example 11] | 0.088 mg/kg | –
8 | 0.33 µM | Cc1cc(F)c(C[C@@H](C(=O)O)N2CCN(C(=O)[C@@H]3CN(C(C)(C)C)C[C@H]3c3ccc(Cl)cc3F)[C@@H](C)C2)c(F)c1 [Example 76] | 0.0047 mg/kg | –

From patent US10301286B2, “Piperazine derivative” (Astellas Pharma Inc., priority 2015, dated 2019)
